Results on 31 sequences are retold here after article PMC4223075, “A Conserved Peptide Pattern from a Widespread Microbial Virulence Factor Triggers Pattern-Induced Immunity in Arabidopsis” (PLoS Pathogens, 2014).

No end group written: not given here.

The first assay deals with Arabidopsis leaves. The assay can be described thus: Ethylene formation in Arabidopsis leaves / leaf discs. It is filed as cell-based, Arabidopsis thaliana.
Settings: not given
On the procedure: For MAPK activity assays, infiltrated plant material was harvested after 15 minutes and frozen in liquid nitrogen before used for protein extraction in 20 mM Tris-HCl pH 7.5, 150 mM NaCl, 1 mM EDTA, 1% Triton X-100, 0,1% SDS, 5 mM DTT, Complete Protease Inhibitor Mini, EDTA-free (Roche, Mannheim), PhosStop Phosphatase Inhibitor Cocktail (Roche, Mannheim). After pelleting the cell debris (10 min, 16000 g, 4°C), the supernatant (30 µg protein) was separated on a 10% SDS-PAGE and transferred to a nitrocellulose membrane and activated MAPK6, 3 and 4 were detected by western blotting using the anti phospho p44/42-MAPK antibody from rabbit (Cell Signaling Technology, The Netherlands). For ROS burst measurements two leaf pieces, floated on ddH2O overnight, were placed in one well of a 96-well plate, containing 100 µl of a 20 µM L-012 and 0.5 µg ml^−1 peroxidase solution. Background was measured shortly in a 96-well Luminometer, (Mithras LB 940, Berthold Technologies) before elicitation with a peptide solution or control treatment respectively. The detection of ethylene was performed as described. Leaf pieces were incubated in 20 mM MES buffer, pH 5.7. To visualize callose apposition, leaves were treated as described and harvested 24 hours after infiltration of a peptide solution. Quantification of callose was performed by counting selected pixels and calculated in % relative to the respective image section of the leaf surface. Pictures were analyzed using Photoshop CS6 Magic tool, hereby removing background and leaf-veins within a certain color range. (Use: white, Mode: normal, Opacity: 100%). Medium alkalinization in suspension-cultured Arabidopsis cells and detection of GUS enzyme activity in PR1::GUS transgenic Arabidopsis plants were performed as described previously, [43]. Surface-sterilized Arabidopsis Col-0 seeds were grown in ½ MS liquid medium supplemented with 1 µM of nlp20 (PpNLP) peptide or its orthologs respectively, and flg22 or H2O serving as controls. Root length of two weeks-old seedlings was determined upon transfer onto agar plates.
As to YSWYFPKDSPVTGLGHR [peptide 12], the “elicitor activity (ethylene production in Arabidopsis leaf disks), in words” value is “inactive”.

The same assay, now with this note: synthetic peptides; Arabidopsis leaves; at least six different peptide concentrations; means ± SD of three replicates.
Broadly, the EC50 is the concentration needed to bring the measured effect to its halfway point. As for AIMYSWYFAKDSPVTGLGHRHDWE [compound 23], the EC50 is 307 ± 153 nM. The same measure, in the same setting: in the case of AIMYSWAFPKDSPVTGLGHRHDWE [compound 21] it was 2630 ± 208 nM; in that of AIMYSWYFPKDSPVTGLGHRADWE [compound 35], 7.7 ± 1.7 nM. Still for that read-out and setting: for SWYFPKDSPVTGLGHR [compound 14] the value was greater than 100000 nM. In turn, AIMYAWYFPKDSPVTGLGHRHDWE [compound 19] returned an EC50 of 18 ± 10 nM. For AIMYSWYFPKDSPVTGLGHRHDAE [compound 37], the EC50 was determined as 7.3 ± 1.8 nM. Same read-out and setting: in the case of AIMYSWYFPKDSPVTGLGHRHAWE [compound 36] it was 6.2 ± 5.6 nM; in that of AIMYSWYFPKDSPVTGLGARHDWE [compound 33], 48 ± 34 nM; in that of KDSPVTGLGHRHDWE [compound 5], greater than 100000 nM.

As for AIMYSWYFPKDAPVTGLGHRHDWE [compound 26], the EC50 amounted to 57 ± 28 nM. The same measure, in the same setting: for AIMYSWYFPKDSPVTGAGHRHDWE [compound 31] the value was 24 ± 8 nM; for WIMYSWYFPKDSPVTGLGHRHDWE [compound 15], 55 ± 24 nM. On the same count and under the same terms, for AIAYSWYFPKDSPVTGLGHRHDWE [compound 17] the value was 42 ± 9 nM; for AIMYSWYFPADSPVTGLGHRHDWE [compound 24], 89 ± 31 nM; for AIMYSWYFPKDSAVTGLGHRHDWE [compound 27], 76 ± 45 nM. The same measure, in the same setting: for AIMASWYFPKDSPVTGLGHRHDWE [compound 18] the value was 1500 ± 436 nM. IMYSWYFPKDSPVTGLGHR [compound 10] came in with an EC50 of 133 ± 10 nM. On the same count and under the same terms, in the case of AIMYSWYFPKDSPVTGLAHRHDWE [compound 32] it was 220 ± 78 nM. Still for that read-out and setting: for MYSWYFPKDSPVTGLGHR [compound 11] the value was 1550 ± 328 nM; for YSWYFPKDSPVTGLGHR [peptide 12], greater than 50000 nM; for AIMYSWYFPKDSPVAGLGHRHDWE [compound 29], 25 ± 15 nM. The same measure, in the same setting: in the case of AIMYSWYFPKDSPVTGLGHRHDWA [compound 38] it was 7.3 ± 1.7 nM. AIMYSWYAPKDSPVTGLGHRHDWE [compound 22] had an EC50 of 5.4 ± 3 nM. Still for that read-out and setting: for RVATYNGVYAIMYSWYFPKD [compound 7] the value was 84 ± 11 nM; for AIMYSWYFPKDSPATGLGHRHDWE [compound 28], 30 ± 11 nM; for AIMYSWYFPKDSPVTALGHRHDWE [compound 30], 23 ± 7.6 nM.

On to AIMYSWYFPKASPVTGLGHRHDWE [compound 25], for which the midpoint of the response, the EC50, lay at 97 ± 36 nM. Same read-out and setting: for SWYFPKDSPVTGLGH [peptide 4] the value was greater than 100000 nM; for YAIMYSWYFPKDSPV [compound 3], 217 ± 65 nM. Same read-out and setting: in the case of AIMYSWYFPKDSPVTGLGHAHDWE [compound 34] it was 283 ± 40 nM; in that of AAMYSWYFPKDSPVTGLGHRHDWE [compound 16], 1570 ± 252 nM.
